The target in experiment [1] is T1, membrane galectin-1 (Rattus norvegicus, UniProt P11762).
T1 construct: endogenous in cells; host or cells: EJ cells (H-Ras (12V)-transformed Rat-1 fibroblasts)
In words: Membrane galectin-1 in intact EJ cells treated with FTS or GTS (Western blot). In kind it is cell-based. The following applies: for reduction in the amount of membrane galectin-1: intact EJ cells, without cross-linking, Western blot (FIG. 3). An excerpt: FIG. 3 is a photograph of a Western blot of galectin-1 isolated from cells in the presence of a control, FTS and GTS.
Yet another aspect of the present invention is directed to a method of determining efficacious dosages of a Ras antagonist that disrupts Ras-anchor protein binding. In general, the method entails contacting cells with the antagonist in vivo or in vitro, collecting the cells following the contacting, isolating cell membranes from the collected cells, measuring decrease in anchor protein concentration per unit of cell membrane protein, and correlating the decrease with dosage of the Ras antagonist. In a preferred embodiment, a method for measuring the biological action of FTS and its analogs in vivo and in vitro is based on the suppression of the immunoassayable galectin-1 in H-Ras-transformed tumors. The basis of this assay depends upon the dose dependent loss of galectin-1 from cell membranes by FTS. Under maximal stimulation of tumor cells with FTS, 90% of galectin-1 is lost from membrane. This allows for an excellent dose response. A variation of this assay uses drug induced suppression of the anchor proteins in normal human lymphocytes isolated from patients being treated with FTS in phase 1 clinical trials. A dose of FTS or any other Ras antagonist that maximally suppresses galectin-1 (or the respective anchor protein of the antagonist) should be a dose that produces effects on other biological endpoints in vivo. When such assay is in mice and humans, therapeutically efficacious doses of Ras antagonists for humans can be determined.
(§1) In agreement with previous results [Kloog et al., 1999] FTS, but not GTS, reduced the amount of membrane Ras in the cells by 50-60% (data not shown). Similarly, FTS (but not GTS) induced a 90% reduction in the amount of membrane galectin-1 (FIG. 3). Thus, the magnitude of the FTS-induced galectin-1 decrease was much greater than that of Ras.
For orientation: In western blotting, separated proteins are transferred to a membrane and probed.

Experiment [2] addresses T2, membrane Ras (Homo sapiens, UniProt P01112, G12V).
T2 construct: expressed in transfected cells; host or cells: Rat-1 fibroblasts stably transformed with H-Ras (12V) (EJ cells)
As to the kind of experiment: Membrane Ras in intact EJ cells treated with FTS or GTS. In kind it is cell-based, rat. The settings on record: without cross-linking, data not shown.
Excerpt: as §1

Experiment [3] deals with T3, Ras-IDRA complex (34-43 kDa) (Rattus norvegicus, UniProt P11762).
T3 construct: expressed in transfected cells; host or cells: EJ cells (Rat-1 transformed with H-Ras (12V)) and their membranes; galectin-1 is endogenous
As to the kind of experiment: Chemical cross-linking (DSS/DSP) of Ras-IDRA complexes in EJ cells and membranes, SDS-PAGE, Ras Ab immunoblot, purification. In kind it is cell-based. On the procedure:
FIG. 1 is a photograph of an electrophoretic gel illustrating use of Ras antibodies and chemical cross-linkers for identification of Ras IDRA complexes that are sensitive to the Ras inhibitor, FTS. Ras antibodies (Ab) identify Ras and Ras-IDRA complex in EJ cell membranes. Membranes corresponding to 10^6 control or FTS (50 μM)-treated EJ cells were incubated in 50 mM sodium bicarbonate buffer, pH 8.5, containing protease inhibitors and 2% DMSO (no cross-linker controls) or the indicated concentrations of the cross-linkers DSS or DSP. Samples of Triton X-100 extracts of the membranes were subjected to SDS-PAGE under non-reducing conditions followed by Western immunoblotting with Ras Ab. Open arrow corresponds to Ras (21 kDa) and closed arrow corresponds to the major Ras-putative IDRA band (34-43 kDa) detected in the blot under these conditions. This band is not detected in the blots of the non cross-linked samples or in the blots of the cross-linked samples of FTS-treated cells.
We used chemical cross-linkers in an attempt to identify the rapidly dissociating complexes of Ras and Ras-interacting proteins. […] When membranes of control and FTS-treated cells were exposed to these cross-linkers solubilized and fractionated on SDS-containing gels, Ras-immunoreactive bands were clearly detected at 34-43 kDa, 50 kDa, and 70 kDa (FIG. 1). […]

In experiment [4] the test system is H-Ras-transformed Rat-I (EJ) fibroblasts. The settings on record: cited from earlier work.
The test system of experiment [5] is Ras-transformed cells. The settings on record: Aharonson et al., 1998; cited from earlier work.
Experiment [6] concerns fibroblasts transformed by ErbB2. The following applies: ErbB2 acting upstream of Ras; cited from earlier work.
For experiment [7], the system named is cells transformed by v-Raf. The following applies: v-Raf acts independently of Ras; cited from earlier work.
Experiment [8] relates to H-Ras. The following applies: cited from earlier work.
The test system of experiment [9] is Ras methylation. The settings on record: in vitro; cited from earlier work.
Experiment [10] has as its system cells transformed with the farnesylated but unmethylated K-Ras 4B (12V) CVYL isoform. The settings on record: cited from earlier work.
The subject of experiment [11] is K-Ras 4B (12V), N-Ras (13V) and N-Ras (61L). The settings on record: membranes of rodent fibroblasts and of human tumor cell lines; cited from earlier work.
Experiment [12] concerns prenylated Gβγ-subunits of heterotriimeric G-proteins. The following applies: Rat-1 cell membranes; cited from earlier work.
The subject of experiment [13] is myr-Ras. The following applies: myr-Ras-transformed cells; cited from earlier work.
The test system of experiment [14] is prenylated Rac-1 and Rho A. The settings on record: human melanoma cells; cited from earlier work.
Experiment [15] concerns the target H-Ras (Homo sapiens, UniProt P01112, G12V). The following applies: intact cells in vitro; dislodging H-Ras from its anchorage domains; cited from earlier work.

“Also recorded” adds a separate entry of the source.

T3 sequence (P11762 2-135 limits assumed, one chain of several): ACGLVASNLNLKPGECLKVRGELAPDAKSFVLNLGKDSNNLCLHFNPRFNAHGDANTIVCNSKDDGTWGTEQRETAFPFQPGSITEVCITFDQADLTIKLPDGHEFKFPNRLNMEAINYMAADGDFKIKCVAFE
T1 sequence (P11762 whole entry): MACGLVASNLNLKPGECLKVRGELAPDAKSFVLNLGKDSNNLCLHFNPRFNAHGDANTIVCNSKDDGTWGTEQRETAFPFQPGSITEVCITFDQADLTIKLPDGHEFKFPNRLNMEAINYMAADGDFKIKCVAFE

Consider `CC(C)=CCC/C(C)=C/CC/C(C)=C/CSc1ccccc1C(=O)O` [FTS, S-trans, trans-farnesylthiosalicylic acid], for which, in experiment [1] (EJ cells, in parallel with the decrease in Ras), the “levels of endogenous galectin-1 in EJ cells” value is “decreased the levels”. The “reduction in the amount of membrane galectin-1” value in [1] is 90%. For the same compound, the “reduction of the amount of membrane Ras in the cells” value in experiment [2] is on record as 50-60%. The “34-43 kDa Ras-putative IDRA cross-linked band” value in experiment [3] (FTS (50 μM)-treated EJ cells or membranes, DSS or DSP, Ras Ab blot (FIG. 1)) is given as “not detected; also recorded: not present”. For the same compound, the “amount of galectin-1 purified from cross-linked complexes of treated EJ cells” value in experiment [3] (FTS-treated EJ cells, Western blot (FIG. 2)) is “reduces the amounts of anchor; also recorded: very low”. The growth inhibition result in [4] (H-Ras-transformed Rat-I (EJ) fibroblasts) was “potent growth inhibitor”. Moreover, in experiment [4] (affected specifically the membrane-bound H-Ras protein in these cells), the effective concentration range was 5 to 50 µM. The “inhibition of growth of Ras-transformed cells” value in experiment [5] is “inhibited growth”. Moreover, the “inhibition of growth of ErbB2-transformed fibroblasts” value in experiment [6] is “inhibits the growth”. Also, in experiment [7], the “inhibition of growth of v-Raf-transformed cells” value is “not the growth”. In experiment [8], the “inhibition of farnesylation of H-Ras” value is recorded as “did not inhibit”. For the same compound, the “inhibition of Ras methylation” value in [9] is listed as “inhibit”. Also, in experiment [10], the “inhibition of growth of K-Ras 4B (12V) CVYL-transformed cells” value is reported as “inhibits growth”. Also, the “dislodging of K-Ras 4B (12V), N-Ras (13V) and N-Ras (61L) from membranes” value in [11] was “dislodges”. In addition, in experiment [12], the “dislodging of prenylated Gβγ-subunits from membranes” value is “did not dislodge”. Besides, in experiment [13], the “effect on myr-Ras” value is reported as “no effect”. The “reduction of the amounts of prenylated Rac-1 and Rho A” value in [14] is given as “did not reduce”. Besides, the “total amount of cellular Ras” value in experiment [15] is given as “reduced the total amount of cellular Ras”.
In the case of `CC(C)=CCC/C(C)=C/CC/C(C)=C/CC/C(C)=C/CSc1ccccc1C(=O)O` [GGTS], the “inhibition of growth of Ras-transformed cells” value in experiment [5] is on record as “inhibited growth”.
Take `CC(C)=CCC/C(C)=C/CSc1ccccc1C(=O)O` [GTS]: in [1], the “reduction in the amount of membrane galectin-1” value is “no effect and not”. Besides, the “reduction of the amount of membrane Ras in the cells” value in [2] was “not”. Also, the “inhibition of growth of Ras-transformed cells” value in [5] is “not”.
Turning to `COC(=O)c1ccccc1SCC=C(C)CCC=C(C)CCC=C(C)C` [carboxy methylester analogue], the “inhibition of growth of Ras-transformed cells” value in [5] is given as “not”.
